According to patent US20220168309A1 (F-STAR THERAPEUTICS, INC., priority 2019, published 2022):

These compounds were tested on TLR7/9 signaling pathways (assay: Effect on TLR7/9 signaling). Conditions: not given.
Assay type: cell-based
Protocol: (§1) Evaluation of activity of compounds in THP-1 cells for their inhibition of STING, LPS, ppp-dsRNA & Poly IC induction: THP-1 cells were treated with different concentrations (10 uM to 0.01 uM) of Compounds for 1 h followed by STING/TLR3/TLR4/RIG-I/TLR7/9 activation by corresponding agonists. Lipofectamine (LTX) was used along with dsRNA, 2′-3′cGAMP & VACV-70. The cells were then incubated for 20 hours @ 37° C. before measuring IRF activation by using Quanti-Luc. The % inhibition was calculated as 100-[(luminescence of COI treated well/luminescence of non COI treated well)/100]×100. Cytotoxicity was measured by using Cell Titer Glo.

SMILES | effect on TLR7/9 signaling pathways
COC(=O)CCCCCCCCCCCCCCCn1cnc2nc(Cl)nc(Cl)c21 [Compound 6] | does not affect

What follows are compounds tested on TLR4/NF-κB activation (assay: LPS-induced TLR4/NF-κB activation in RAW-WT cells). Conditions: not given.
Assay type: cell-based

SMILES | inhibition of LPS-induced TLR4/NF-κB activation
COC(=O)CCCCCCCCCCCCCCCn1cnc2nc(Cl)nc(Cl)c21 [Compound 6] | seems to inhibit

The compounds below were run against STING (Homo sapiens, UniProt Q86WV6) (assay: STING antagonist activity, cell-based ISG54 promoter-reporter luciferase measurement of IRF activity (THP-1 dual / RAW-ISG cells)). Conditions: Antagonist Activity of Exemplary Compounds; cell line and agonist not given.
Summary of the method: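 THP-1 dual or RAW-ISG cells (50,000/well) pretreated 1 h with compound (10 to 0.01 uM), then stimulated with SB 11285 (30 nM or 1 μM) or 2′3′-cGAMP (10 ug/mL or lipo mixture) for 18–20 h at 37° C. IRF-driven luciferase read by Quanti-Luc; % inhibition versus untreated or DMSO wells, IC50 by curve fit.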

Sequence of STING (Q86WV6 whole entry): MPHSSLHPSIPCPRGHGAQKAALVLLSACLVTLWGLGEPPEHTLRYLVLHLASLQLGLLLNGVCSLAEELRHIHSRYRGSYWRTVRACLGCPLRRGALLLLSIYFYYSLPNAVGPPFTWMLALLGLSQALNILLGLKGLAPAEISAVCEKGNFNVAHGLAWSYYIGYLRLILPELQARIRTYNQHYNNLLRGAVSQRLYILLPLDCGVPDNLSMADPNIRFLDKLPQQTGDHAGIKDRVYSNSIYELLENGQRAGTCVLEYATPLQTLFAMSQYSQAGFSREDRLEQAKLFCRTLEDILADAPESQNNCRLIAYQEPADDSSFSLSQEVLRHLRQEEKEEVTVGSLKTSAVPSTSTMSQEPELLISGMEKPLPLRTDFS

SMILES | IC50 [nM]
COC(=O)CCCCCCCCCCCCCCCn1cnc2nc(Cl)nc(Cl)c21 [Compound 6] | 1 to 1000
CC(=O)OCCCCCCCCn1c(C)nc2nc(Cl)nc(Cl)c21 [Compound 151, 8-(2,6-dichloro-8-methyl-7H-purin-7-yl)octyl acetate] | 1000 to 5000

Same assay, conditions: Antagonist Activity of Exemplary Compounds; cell line and agonist not given; read-out: IC50

SMILES | IC50 [nM]
Cc1nc2nc(Cl)nc(S(=O)(=O)C(C)C)c2n1CCCCCCCCCCN1CCOCC1 [Compound 137, 4-(10-(2-chloro-6-(isopropylsulfonyl)-8-methyl-7H-purin-7-yl)decyl)morpholine] | 1000 to 5000
Cc1nc2nc(Cl)nc(S(=O)(=O)C(C)C)c2n1CCCCCCCCCCCCCCCC(=O)O [Compound 139, 16-(2-chloro-6-(isopropylsulfonyl)-8-methyl-7H-purin-7-yl)hexadecanoic acid] | 1 to 1000
Cc1nc2nc(Cl)nc(S(=O)(=O)C(C)C)c2n1CCCCCCCCCCCCCCCc1nnnn1C [Compound 140, 2-chloro-6-(isopropylsulfonyl)-8-methyl-7-(15-(1-methyl-1H-tetrazol-5-yl)pentadecyl)-7H-purine] | 1 to 1000
COC(=O)CCCCCCN(C)CCCCCCCCn1c(C)nc2nc(Cl)nc(Cl)c21 [Compound 141, Methyl 7-((8-(2,6-dichloro-8-methyl-7H-purin-7-yl)octyl)(methyl)amino)heptanoate] | 1 to 1000
Cc1nc2nc(Cl)nc(S(=O)(=O)C(C)C)c2n1CCCCCCCCCCCCCCCCN1CCOCC1 [Compound 142] | 1 to 1000
COC(=O)CCCCCO[C@@H]1CCN(CCCCCCn2c(C)nc3nc(Cl)nc(S(=O)(=O)C(C)C)c32)C1 [Compound 143, (3R)-1-(6-(2-chloro-6-(isopropylsulfonyl)-8-methyl-7H-purin-7-yl)hexyl)-3-((6-methoxy-6-oxohexyl)oxy)pyrrolidin-1-ium chloride] | 1000 to 5000
Cc1nc2nc(Cl)nc(S(=O)(=O)C(C)C)c2n1CCCCCCCCCCCCCCCC(=O)OCCO [Compound 144, 2-hydroxyethyl 16-(2-chloro-6-(isopropylsulfonyl)-8-methyl-7H-purin-7-yl)hexadecanoate] | 1 to 1000
Cc1nc2nc(Cl)nc(S(=O)(=O)C(C)C)c2n1CCCCCCCCCCCCCCCC(=O)N1CCOCC1 [Compound 145, 16-(2-chloro-6-(isopropylsulfonyl)-8-methyl-7H-purin-7-yl)-1-morpholinohexadecan-1-one] | 1 to 1000
Cc1nc2nc(Cl)nc(S(=O)(=O)CCO)c2n1CCCCCCCCCCCCCCCC(=O)OC(C)C [Compound 146, isopropyl 16-(2-chloro-6-((2-hydroxyethyl)sulfonyl)-8-methyl-7H-purin-7-yl)hexadecanoate] | 1 to 1000
COC(=O)CCCCCCCCCCCCCCCn1c(C)nc2nc(Cl)nc(S(=O)(=O)CCN)c21 [Compound 147, methyl 16-(6-((2-aminoethyl)sulfonyl)-2-chloro-8-methyl-7H-purin-7-yl)hexadecanoate] | 1000 to 5000
COC(=O)[C@@H](NC(=O)CCCCCCCCCCCCCCCn1c(C)nc2nc(Cl)nc(S(=O)(=O)C(C)C)c21)C(C)C [Compound 148, methyl (16-(2-chloro-6-(isopropylsulfonyl)-8-methyl-7H-purin-7-yl)hexadecanoyl)-L-valinate] | 1 to 1000
Cc1nc2nc(Cl)nc(S(=O)(=O)C(C)C)c2n1CCCCCCCCCCCCCCCC(N)=O [Compound 149, 16-(2-chloro-6-(isopropylsulfonyl)-8-methyl-7H-purin-7-yl)hexadecanamide] | 1 to 1000
Cc1nc2nc(Cl)nc(S(=O)(=O)C(C)C)c2n1CCCCCCCCCCCCCCCC(=O)N(C)C [Compound 150, 16-(2-chloro-6-(isopropylsulfonyl)-8-methyl-7H-purin-7-yl)-N,N-dimethylhexadecanamide] | 1 to 1000
COC(=O)CCCCCCN(C)CCCCCCCCn1c(C)nc2nc(Cl)nc(S(=O)(=O)C(C)C)c21 [Compound 152, Methyl 7-((8-(2-chloro-6-(isopropylsulfonyl)-8-methyl-7H-purin-7-yl)octyl)(methyl)-amino)heptanoate] | 1000 to 5000
COC(=O)CCCN1CCN(CCCCCCn2c(C)nc3nc(Cl)nc(Cl)c32)CC1 [Compound 153, Methyl 4-(4-(6-(2,6-dichloro-8-methyl-7H-purin-7-yl)hexyl)piperazin-1-yl)butanoate] | 1000 to 5000
COC(=O)CCCCCCCCCCCCCCCn1c(CN2CCOCC2)nc2nc(Cl)nc(Cl)c21 [Compound 154, methyl 16-(2,6-dichloro-8-(morpholinomethyl)-7H-purin-7-yl)hexadecanoate] | 1 to 1000
COC(=O)CCCCCCNCCCCCCCCn1c(C)nc2nc(Cl)nc(Cl)c21 [Compound 155, Methyl 7-((8-(2,6-dichloro-8-methyl-7H-purin-7-yl)octyl)amino)heptanoate] | 1 to 1000
COC(=O)CCCCCOC1CCN(CCCCCCn2c(C)nc3nc(Cl)nc(Cl)c32)CC1 [Compound 156, Methyl 6-((1-(6-(2,6-dichloro-8-methyl-7H-purin-7-yl)hexyl)piperidin-4-yl)oxy)hexanoate] | 1000 to 5000
Cc1nc2nc(Cl)nc(Cl)c2n1CCCCCCCCCCCCCCCC#N [Compound 157, 16-(2,6-dichloro-8-methyl-7H-purin-7-yl)hexadecanenitrile] | 1 to 1000
Cc1nc2nc(Cl)nc(S(=O)(=O)C(C)C)c2n1CCCCCCCCCCCCCCCC(=O)OCC1CC1 [Compound 158, Cyclopropylmethyl 16-(2-chloro-6-(isopropylsulfonyl)-8-methyl-7H-purin-7-yl)hexadecanoate] | 1 to 1000
Cc1nc2nc(Cl)nc(S(=O)(=O)C(C)C)c2n1CCCCCCCCCCCCCCCC(=O)OCC(C)C [Compound 159, Isobutyl 16-(2-chloro-6-(isopropylsulfonyl)-8-methyl-7H-purin-7-yl)hexadecanoate] | 1000 to 5000
[2H]C([2H])([2H])OC(=O)CCCCCCCCCCCCCCCn1c(C)nc2nc(Cl)nc(S(=O)(=O)C(C)C)c21 [Compound 160, Methyl-d3 16-(2-chloro-6-(isopropylsulfonyl)-8-methyl-7H-purin-7-yl)hexadecanoate] | 1 to 1000
COC(=O)CCCCCCCCCCCCCCn1c(C)nc2nc(Cl)nc(Cl)c21 [Compound 161, Methyl 15-(2,6-dichloro-8-methyl-7H-purin-7-yl)pentadecanoate] | 1 to 1000
COC(=O)CCCCCCCCCCCCCCn1c(C)nc2nc(Cl)nc(S(=O)(=O)C(C)C)c21 [Compound 162, Methyl 15-(2-chloro-6-(isopropylsulfonyl)-8-methyl-7H-purin-7-yl)pentadecanoate] | 1 to 1000
Cc1nc2nc(Cl)nc(Cl)c2n1CCCCCCCCCCCCCCCCN [Compound 163, 16-(2,6-dichloro-8-methyl-7H-purin-7-yl)hexadecan-1-amine] | 1 to 1000
Cc1nc2nc(Cl)nc(S(=O)(=O)C(C)C)c2n1CCCCCCCCCCCCCCCC#N [Compound 164, 16-(2-chloro-6-(isopropylsulfonyl)-8-methyl-7H-purin-7-yl)hexadecanenitrile] | 1 to 1000
Cc1nc2nc(Cl)nc(S(=O)(=O)C(C)C)c2n1CCCCCCCCCCCCCCCc1n[nH]c(=O)o1 [Compound 165, 5-(15-(2-chloro-6-(isopropylsulfonyl)-8-methyl-7H-purin-7-yl)pentadecyl)-1,3,4-oxadiazol-2(3H)-one] | 1 to 1000
CC(=O)NCCCCCCCCCCCCCCCCn1c(C)nc2nc(Cl)nc(Cl)c21 [Compound 166, N-(16-(2,6-dichloro-8-methyl-7H-purin-7-yl)hexadecyl)acetamide] | 1 to 1000
Cc1nc2nc(Cl)nc(S(=O)(=O)C(C)C)c2n1CCCCCCCCCCCCCCCc1noc(=O)n1C [Compound 167, 3-(15-(2-chloro-6-(isopropylsulfonyl)-8-methyl-7H-purin-7-yl)pentadecyl)-4-methyl-1,2,4-oxadiazol-5(4H)-one] | 1 to 1000
COC(=O)CCCCCCNCCCCCCCCn1c(C)nc2nc(Cl)nc(S(=O)(=O)C(C)C)c21 [Compound 168, methyl 7-((8-(2-chloro-6-(isopropylsulfonyl)-8-methyl-7H-purin-7-yl)octyl)amino)heptanoate] | 1 to 1000

What follows are compounds tested on cGAS-STING-IRF/NF-κB signaling pathway (assay: Inhibition of dsDNA-induced cGAS-STING-IRF/NF-κB signaling). Conditions: not given.
Assay type: cell-based
Protocol: as §1

SMILES | inhibition of dsDNA-induced cGAS-STING-IRF/NF-κB signaling pathway
COC(=O)CCCCCCCCCCCCCCCn1cnc2nc(Cl)nc(Cl)c21 [Compound 6] | weakly inhibits

What follows are compounds tested on RIG-I-IRF/NF-κB signaling pathway (assay: Inhibition of 3p-hpRNA-induced RIG-I-IRF/NF-κB signaling). Conditions: not given.
Assay type: cell-based
Protocol: as §1

SMILES | inhibition of 3p-hpRNA-induced RIG-I-IRF/NF-κB signaling pathway
COC(=O)CCCCCCCCCCCCCCCn1cnc2nc(Cl)nc(Cl)c21 [Compound 6] | weakly inhibits
